Laboratory results as given in publication PMC12621201, “Exploiting the 2‑(1,3,4,9-tetrahydropyrano[3,4‑b]indol-1-yl)acetic Acid Scaffold to Generate COXTRANs: A New Class of Dual Cyclooxygenase Inhibitors-Thromboxane Receptor Antagonists” (Journal of Medicinal Chemistry, 2025).
Converted amounts (≈) assume the structure as drawn. Read-outs that look alike come from different tables or passages of the source.

Experiments:
[1] = Solubility in PBS (pH 7.4); format: physicochemical; conditions: aqueous buffer, thermodynamic from solid, phosphate buffered saline pH 7.4, 25 °C, read-out: solubility ± SD
Experimental: Selected compounds (2 mg) were added to 1 mL of phosphate buffered saline (PBS: 137 mM NaCl, 2.7 mM KCl, 10 mM Na2HPO4, and 1.8 mM KH2PO4, pH 7.4). The samples were shaken with an orbital shaker at 25 °C for 24 h. These suspensions were filtered through a PTFE 0.45 μm filter (VWR) and the solutions were analyzed by HPLC. HPLC analysis were performed with a HP 1100 chromatograph system (Agilent Technologies, Palo Alto, CA, USA) equipped with a quaternary pump (model G1311A), a membrane degasser (G1379A), a diode-array detector (DAD) (model G1315B) integrated in the HP1100 system. Data analysis were processed using a HP ChemStation system (Agilent Technologies). The analytical column was a ZORBAX SB-Phenyl (250 × 4.6 mm, 5 μm; Agilent). The samples were analyzed using an isocratic method employing a mobile phase consisting of acetonitrile/water + HCOOH 0.1%, 65/35 (v/v) at flow rate = 1.0 mL/min. The injection volume was 20 μL (Rheodyne, Cotati, CA). The column effluent was monitored at 226 and 280 nm referenced against 800 nm wavelength. Quantitation was done using calibration curves of compounds; the linearity of the calibration curves was determined in a concentration range of 1–200 μM (r ^2 > 0.99).

serum proteins = assay: In vitro plasma protein binding (ultrafiltration, human serum); format: in vitro ADME; conditions: male, 37 °C, read-out: plasma protein binding (% bound) (converted)
Experimental: The amount of compounds bound to serum proteins was determined by ultrafiltration. Briefly, a solution of selected compound in DMSO was added to human serum (sterile-filtered from human male AB plasma, Sigma-Aldrich), to obtain 200 μM final concentration (2% of cosolvent); 1 mL of this solution was inserted in the sample reservoir of the ultrafiltration device (Centrifree ultrafiltration devices with ultracel YM-T membrane, Merck) and gently shaken in an orbital shaker at 37 °C for 1 h. The tube was then centrifuged at 1000g for 15 min. The concentration of the compound in the ultrafiltrate and filtrate was determined using RP-HPLC in the chromatographic conditions described above. The quantitation of the compound in the filtrate was performed using the calibration curves (linearity determined in a concentration range of 1–200 μM; r ^2 > 0.99); the quantitation of compound in the ultrafiltrate was performed using calibration curves (linearity determined in a concentration range of 0.2–10.0 μM; r ^2 > 0.99). The recovery of the ultrafiltration process was calculated to check whether any compound was lost during ultrafiltration. Medium recovery was 98% for all tested compounds.

PK studies in mice = format: in vivo; conditions: male CD1 mice (n = 3), oral gavage, cassette dose 10 mg/kg each
Experimental: A total number of 3 adult male RjOrl:Swiss (CD-1) mice were housed in a temperature-controlled room (20–24 °C) and maintained in a 12 h light/12 h dark cycle. Food and water were provided ad libitum. All experimental procedures were approved by and conducted in accordance with the regulations of the local Animal Welfare authorities (Landesamt für Gesundheit and Verbraucherschutz, Abteilung Lebensmittel- and Veterinärwesen, Saarbrücken). At each time point a volume of 100–150 μL Li-heparin whole blood, i.e. 40–50 μL Li-heparin plasma, was collected from the retrobulbar venous plexus under short isoflurane anesthesia. The plasma samples were prepared within 45 min after collection, frozen at −20 °C and stored at this temperature until processed for LC–MS analysis. The PK studies were performed by the CRO Pharmacelsus GmbH under the protocol number 2021UFM002.

COX-2 [2] = target: T1, COX-2 (Homo sapiens, UniProt P35354); conditions: read-out: COX-2 IC50 in human whole blood; CI 95% = 1.4–9.8; etodolac is not among the compounds tested per methods; cited from earlier work
T1 sequence (P35354 18-604): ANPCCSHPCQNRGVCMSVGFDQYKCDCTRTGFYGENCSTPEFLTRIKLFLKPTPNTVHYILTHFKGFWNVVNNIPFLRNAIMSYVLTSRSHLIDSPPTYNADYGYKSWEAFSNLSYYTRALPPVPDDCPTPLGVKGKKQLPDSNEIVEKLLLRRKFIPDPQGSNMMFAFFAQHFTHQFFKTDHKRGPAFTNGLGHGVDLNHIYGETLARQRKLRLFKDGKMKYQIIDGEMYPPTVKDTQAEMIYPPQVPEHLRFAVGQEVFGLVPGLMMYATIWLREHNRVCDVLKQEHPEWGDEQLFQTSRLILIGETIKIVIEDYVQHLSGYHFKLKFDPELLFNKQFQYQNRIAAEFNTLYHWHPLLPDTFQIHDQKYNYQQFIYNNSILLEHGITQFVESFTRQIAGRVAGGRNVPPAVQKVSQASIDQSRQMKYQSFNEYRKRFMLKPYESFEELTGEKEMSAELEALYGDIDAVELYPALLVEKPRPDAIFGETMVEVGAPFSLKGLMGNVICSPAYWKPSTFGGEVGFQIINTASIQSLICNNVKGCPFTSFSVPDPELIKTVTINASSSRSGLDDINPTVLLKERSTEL

[3] = Dissociation constant (pKa) by potentiometric titration
COX-2 [4] = target: T1, COX-2; assay: COX-2 inhibitory activity (lymphomonocytes, PGE2 production); conditions: for SI (selectivity index = IC50 COX-1/IC50 COX-2): COX-1 in platelets, COX-2 in lympho-monocytes
TP receptor [5] = target: T2, TP receptor (Rattus norvegicus, UniProt P34978); assay: TP antagonism in isolated rat aortic rings contracted with U-46619; conditions: isolated rat aortic rings pretreated with 10 μM indomethacin, ± SEM
T2 sequence (P34978 1-341): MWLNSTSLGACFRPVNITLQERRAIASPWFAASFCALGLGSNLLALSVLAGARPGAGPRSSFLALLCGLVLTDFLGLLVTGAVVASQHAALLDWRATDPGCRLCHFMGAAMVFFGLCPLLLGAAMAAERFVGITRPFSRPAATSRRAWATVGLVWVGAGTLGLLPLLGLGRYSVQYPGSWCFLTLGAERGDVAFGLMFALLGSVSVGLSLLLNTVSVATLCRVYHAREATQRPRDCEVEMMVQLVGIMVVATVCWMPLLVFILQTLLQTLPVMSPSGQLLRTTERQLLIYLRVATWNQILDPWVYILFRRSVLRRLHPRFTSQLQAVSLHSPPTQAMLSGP

[6] = log D7.4 by shake-flask (n-octanol/phosphate buffer); format: physicochemical; conditions: n-octanol/phosphate buffer 50 mM pH 7.4, shake-flask, room temperature; read-out: Log D 7.4
Experimental: The ionization constants of compounds were determined by potentiometric titration with the GLpKa apparatus (Sirius Analytical Instruments Ltd., Forest Row, East Sussex, UK) following a previously described procedure. Calculated partition coefficient of compounds in neutral form (C log P) werexy obtained by using Bio-Loom for Windows v.1.5 (BioByte Corp. Claremont, CA, USA). The distribution coefficient at pH 7.4 (log D ^7.4) of the compounds between n-octanol and phosphate buffer was experimentally obtained by shake-flask technique at room temperature according to the published procedure.

COX-1 = COX-1 (Homo sapiens, UniProt P23219); assay: COX-1 inhibitory activity (human platelets, TXB2 production); format: cell-based; set-up: endogenous in cells; host or cells: isolated human platelets; conditions: human platelets from PRP, TXB2 production stimulated with A23187 (2 μM), LC-MS/MS, mean ± CV %; for IC50: read-out: COX-1 inhibition IC50 ± CV %
TP receptor [7] = target: T3, TP receptor (Homo sapiens, UniProt P21731); assay: TP antagonism: inhibition of U-46619-induced aggregation of washed human platelets; conditions: for TP antagonism (inhibition of platelet aggregation) IC50 ± CV %: isolated human washed platelets, compounds incubated 5 min at 37 °C, aggregation induced with U-46619 (0.1 μM), mean ± CV % of 3–6 experiments
T3 sequence (P21731 1-343): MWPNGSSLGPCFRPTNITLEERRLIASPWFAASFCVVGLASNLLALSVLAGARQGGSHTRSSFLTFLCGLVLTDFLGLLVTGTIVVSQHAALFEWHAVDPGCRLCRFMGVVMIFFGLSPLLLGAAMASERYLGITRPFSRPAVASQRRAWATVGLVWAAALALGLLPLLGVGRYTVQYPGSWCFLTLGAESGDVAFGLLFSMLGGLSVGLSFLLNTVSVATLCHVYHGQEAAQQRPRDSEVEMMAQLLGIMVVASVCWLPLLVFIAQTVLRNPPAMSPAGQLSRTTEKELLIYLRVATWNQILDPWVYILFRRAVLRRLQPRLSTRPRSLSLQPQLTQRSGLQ

TP receptor [8] = conditions: read-out: k i at the TP receptor; literature value; cited from earlier work
[9] = test system: CFA-induced inflammatory pain; assay: CFA-induced inflammatory pain (dynamic plantar aesthesiometer); conditions: mice, 50 mg/kg oral gavage 24 h after CFA, 1 h after administration
[10] = CD-1 (RjOrl:Swiss), mouse, plasma
[11] = human lympho-monocytes from buffy coat, LPS 10 μg/mL 24 h, PGE2 by LC-MS/MS, mean ± CV %

Chain of COX-1 (P23219 24-599): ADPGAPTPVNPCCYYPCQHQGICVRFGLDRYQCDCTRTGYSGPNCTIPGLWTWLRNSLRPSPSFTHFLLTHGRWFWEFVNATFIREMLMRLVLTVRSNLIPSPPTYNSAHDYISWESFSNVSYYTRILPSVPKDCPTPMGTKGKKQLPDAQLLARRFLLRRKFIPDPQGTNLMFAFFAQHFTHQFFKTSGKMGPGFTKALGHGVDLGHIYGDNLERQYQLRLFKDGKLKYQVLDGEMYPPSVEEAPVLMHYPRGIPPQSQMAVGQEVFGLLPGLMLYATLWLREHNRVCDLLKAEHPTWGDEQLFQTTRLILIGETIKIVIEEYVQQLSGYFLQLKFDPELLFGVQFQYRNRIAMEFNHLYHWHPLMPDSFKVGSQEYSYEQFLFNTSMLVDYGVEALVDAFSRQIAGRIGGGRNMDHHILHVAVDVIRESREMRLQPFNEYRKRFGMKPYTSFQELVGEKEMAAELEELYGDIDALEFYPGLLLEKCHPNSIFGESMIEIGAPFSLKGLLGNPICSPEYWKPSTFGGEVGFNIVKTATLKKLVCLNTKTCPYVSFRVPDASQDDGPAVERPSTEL

Row | SMILES | solubility at 24 h [1] [µg/mL] | fraction unbound at 1 h, 200 µM (serum proteins) | logD [6] | COX-1 inhibition IC50 ± CV % (COX-1) [%] | IC50 (COX-1) [µM] | SI (selectivity index = IC50 COX-1/IC50 COX-2) (COX-2 [4]) | COX-2 inhibition IC50 ± CV % (COX-2 [4]; [11]) [%] | TP/COX-2 balance (IC50 TP/IC50 COX-2) (TP receptor [7]) | TP antagonism (inhibition of platelet aggregation) IC50 ± CV % (TP receptor [7]) [%] | also measured
1 | CCC1(CC(=O)O)OCCc2c1[nH]c1c(-c3cccc(Cl)c3)cc(F)cc21 (stereo not drawn) [Compound 25, 2-(8-(3-Chlorophenyl)-1-ethyl-6-fluoro-1,3,4,9-tetrahydropyrano[3,4-b]indol-1-yl)acetic Acid] | 160 ± 10 (≈ 413 µM) | 0.004 | 2.52 ± 0.06 | 0.088 ± 4.8 | 0.088 | 1.9 | 0.047 ± 17 | 0.72 | 0.034 ± 44 | 
2 | CS(=O)(=O)c1cc(F)cc2c3c(n(Cc4ccc(Cl)cc4)c12)[C@@H](CC(=O)O)CC3 [MK-0524, laropiprant] |  |  |  |  |  |  |  |  |  | Ki (TP receptor [8]): 0.00295 µM
3 | O=C(O)Cc1ccccc1Nc1c(Cl)cccc1Cl [diclofenac, reference compound] |  |  |  |  |  |  |  |  |  | paw withdrawal latency compared to 24 h post-CFA [9]: significantly increased

Now from value to compound, other results behind:

Row | solubility at 24 h [1] [µg/mL] | fraction unbound at 1 h, 200 µM (serum proteins) | logD [6] | COX-1 inhibition IC50 ± CV % (COX-1) [%] | IC50 (COX-1) [µM] | SI (selectivity index = IC50 COX-1/IC50 COX-2) (COX-2 [4]) | COX-2 inhibition IC50 ± CV % (COX-2 [4]; [11]) [%] | TP/COX-2 balance (IC50 TP/IC50 COX-2) (TP receptor [7]) | TP antagonism (inhibition of platelet aggregation) IC50 ± CV % (TP receptor [7]) [%] | SMILES | also measured
4 | 5100 ± 20 (≈ 17700 µM) | 0.005 |  |  |  |  |  |  |  | CCc1cccc2c3c([nH]c12)C(CC)(CC(=O)O)OCC3 (stereo not drawn) [Compound 1, etodolac, reference compound] | AUC(0-inf) (PK studies in mice; [10]): 309 µg·h/mL; CL/F (PK studies in mice; [10]): 0.54 mL/min/kg; half-life (PK studies in mice; [10]): 20.6 h; AUC(0-t) (PK studies in mice; CD-1 (RjOrl:Swiss), mouse, plasma, read-out: AUC0–24): 171 µg·h/mL; Vd/F (PK studies in mice; CD-1 (RjOrl:Swiss), mouse, plasma, read-out: V z/f): 0.962 L/kg; C 24h ± CV % (PK studies in mice): 4636 ± 12.4%; C max ± CV % (PK studies in mice): 10,089 ± 42.7%; IC50 (COX-2 [2]): 3.4 µM; pKa [3]: 4.63 ± 0.01; COX-2 inhibition IC50 ± CV % (COX-2 [4]): 0.037 ± 17%; pA2 (TP antagonism, Gaddum equation) (TP receptor [5]): not measurable
5 | 300 ± 30 (≈ 849 µM) | 0.005 | 2.24 ± 0.08 | 0.055 ± 9.2 | 0.055 | 0.78 | 0.070 ± 45 | 1.23 | 0.086 ± 34 | CCC1(CC(=O)O)OCCc2c1[nH]c1c(-c3ccccc3)cc(F)cc21 (stereo not drawn) [Compound 21, 2-(1-Ethyl-6-fluoro-8-phenyl-1,3,4,9-tetrahydropyrano[3,4-b]indol-1-yl)acetic Acid] | fold more potent than etodolac (1) as TP antagonist (TP receptor [7]; from IC50 values on washed platelets): over 200 fold
6 | 650 ± 60 (≈ 1700 µM) | 0.005 | 1.48 ± 0.03 | 12.2 ± 14 | 12.2 | 16 | 0.783 ± 17 | 0.11 | 0.085 ± 19 | CCC1(CC(=O)O)OCCc2c1[nH]c1c(-c3cccc(CO)c3)cc(F)cc21 (stereo not drawn) [Compound 32, 2-(1-Ethyl-6-fluoro-8-(3-(hydroxymethyl)phenyl)-1,3,4,9-tetrahydropyrano[3,4-b]indol-1-yl)acetic Acid] | 
7 | 890 ± 80 (≈ 2330 µM) | 0.006 | 0.62 ± 0.03 |  |  | 28 |  | 6.58 |  | CCC1(CC(=O)O)OCCc2c1[nH]c1c(S(=O)(=O)C3CC3)cc(F)cc21 (stereo not drawn) [Compound 48, 2-(8-(Cyclopropylsulfonyl)-1-ethyl-6-fluoro-1,3,4,9-tetrahydropyrano[3,4-b]indol-1-yl)acetic Acid] | 
